Measurements from the NIST ThermoML archive (doi:10.1016/j.jct.2014.03.021).
± gives the expanded uncertainty stated by the source.

Assays:
[1] = 101.33 kPa, Liquid; for mass density: Vibrating tube method; for speed of sound: Sing-around technique in a fixed-path interferometer; for electrical conductivity: Alternating current cell with electrodes
[2] = refractive index (Na D-line) (dimensionless); conditions: 101.33 kPa, Liquid, Standard Abbe refractometry

Row | mass density ([1]; 293.15 K) | mass density ([1]; 298.15 K) | mass density ([1]; 303.15 K) | mass density ([1]; 308.15 K) | speed of sound ([1]; 313.15 K) | mass density ([1]; 313.15 K) | mass density ([1]; 318.15 K) | speed of sound ([1]; 323.15 K) | mass density ([1]; 323.15 K) | refractive index ([2]; 293.15 K) | refractive index ([2]; 298.15 K) | refractive index ([2]; 303.15 K) | refractive index ([2]; 308.15 K) | refractive index ([2]; 313.15 K) | refractive index ([2]; 318.15 K) | refractive index ([2]; 323.15 K) | further results | Structure (SMILES)
1 | 998.738 ± 0.11 kg/m3 | 997.576 ± 0.11 kg/m3 | 996.181 ± 0.11 kg/m3 | 994.563 ± 0.11 kg/m3 | 1528.8 ± 1.2 m/s | 992.744 ± 0.11 kg/m3 | 990.737 ± 0.11 kg/m3 | 1542.3 ± 1.2 m/s | 988.556 ± 0.11 kg/m3 | 1.33299 ± 0.00031 | 1.33251 ± 0.00031 | 1.33197 ± 0.00031 | 1.33135 ± 0.00031 | 1.33065 ± 0.00031 | 1.3299 ± 0.00031 | 1.32911 ± 0.00031 | – | O [water]
2 | 1143.46 ± 7.1 kg/m3 | 1140.3 ± 7.1 kg/m3 | 1137.16 ± 7 kg/m3 | 1134.04 ± 7 kg/m3 | 1859.1 ± 5.2 m/s | 1130.94 ± 6.9 kg/m3 | 1127.86 ± 6.9 kg/m3 | 1831.1 ± 5.2 m/s | 1124.79 ± 6.9 kg/m3 | 1.48146 ± 0.001 | 1.48056 ± 0.001 | 1.47931 ± 0.001 | 1.47808 ± 0.001 | 1.47676 ± 0.001 | 1.47544 ± 0.001 | 1.47418 ± 0.001 | electrical conductivity ([1]; 293.15 K): 0.0138 ± 0.00083 S/m; speed of sound ([1]; 293.15 K): 1935.6 ± 5.2 m/s; electrical conductivity ([1]; 298.15 K): 0.0219 ± 0.0013 S/m; speed of sound ([1]; 298.15 K): 1911.8 ± 5.2 m/s; electrical conductivity ([1]; 303.15 K): 0.0327 ± 0.002 S/m; speed of sound ([1]; 303.15 K): 1892 ± 5.2 m/s; electrical conductivity ([1]; 308.15 K): 0.0455 ± 0.0027 S/m; speed of sound ([1]; 308.15 K): 1874.8 ± 5.2 m/s; electrical conductivity ([1]; 313.15 K): 0.0647 ± 0.0039 S/m; electrical conductivity ([1]; 318.15 K): 0.0897 ± 0.0054 S/m; speed of sound ([1]; 318.15 K): 1844.8 ± 5.2 m/s; electrical conductivity ([1]; 323.15 K): 0.109 ± 0.0066 S/m | C[C@H](O)C(=O)[O-].C[N+](C)(C)CCO
